Test [1] addresses Glycogen synthase kinase-3 beta (Homo sapiens) (UniProt P49841). Put plainly: Inhibition against GSK3-beta at 10 uM by HTRF method. Further details: scale not given: the % may be the effect or the level left. A general note: In TR-FRET formats the signal depends on donor and acceptor labels being close together.
The target of test [2] is Cyclin-dependent kinase 5 (Homo sapiens) (UniProt Q00535). Nature of the test: […] against Cdk5 at 10 uM by HTRF method.
Test [3] addresses Receptor tyrosine-protein kinase erbB-2 (Homo sapiens) (UniProt P04626). Put plainly: […] against ErbB2 at 10 uM by HTRF method.
Test [4] addresses cAMP-dependent protein kinase (PKA) (Homo sapiens) (UniProt P22694+P17612+P22612). Put plainly: Inhibition against PKA at 10 uM by HTRF method. The format is protein assay. Set-up: scale not given: the % may be the effect or the level left.
In test [5] the target is T1, Ephrin type-B receptor 4 (Homo sapiens) (UniProt P54760).
T1 sequence (whole entry): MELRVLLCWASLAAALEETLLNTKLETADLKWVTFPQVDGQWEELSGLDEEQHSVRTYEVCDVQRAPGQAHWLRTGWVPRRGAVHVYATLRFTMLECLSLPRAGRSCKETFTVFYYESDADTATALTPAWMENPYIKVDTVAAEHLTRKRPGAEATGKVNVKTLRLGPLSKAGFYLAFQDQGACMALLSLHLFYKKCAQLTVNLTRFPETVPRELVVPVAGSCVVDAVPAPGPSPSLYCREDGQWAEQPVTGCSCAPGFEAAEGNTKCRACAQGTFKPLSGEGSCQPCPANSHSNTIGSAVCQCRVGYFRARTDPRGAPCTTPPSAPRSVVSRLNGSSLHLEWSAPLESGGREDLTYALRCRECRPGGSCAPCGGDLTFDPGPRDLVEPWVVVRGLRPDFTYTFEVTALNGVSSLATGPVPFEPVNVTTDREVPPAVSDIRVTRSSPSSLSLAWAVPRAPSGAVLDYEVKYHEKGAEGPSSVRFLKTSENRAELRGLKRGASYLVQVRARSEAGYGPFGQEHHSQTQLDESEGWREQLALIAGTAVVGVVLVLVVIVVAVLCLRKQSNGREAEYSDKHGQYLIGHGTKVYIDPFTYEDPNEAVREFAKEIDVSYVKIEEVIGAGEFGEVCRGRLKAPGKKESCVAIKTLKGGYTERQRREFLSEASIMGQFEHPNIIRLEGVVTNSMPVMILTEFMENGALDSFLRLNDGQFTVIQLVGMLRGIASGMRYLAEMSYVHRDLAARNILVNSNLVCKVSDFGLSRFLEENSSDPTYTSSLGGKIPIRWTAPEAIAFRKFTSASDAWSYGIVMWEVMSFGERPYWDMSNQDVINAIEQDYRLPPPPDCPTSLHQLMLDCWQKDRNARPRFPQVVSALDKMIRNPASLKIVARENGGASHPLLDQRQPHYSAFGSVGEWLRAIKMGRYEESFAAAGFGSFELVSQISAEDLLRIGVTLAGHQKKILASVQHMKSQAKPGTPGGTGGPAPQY
Put plainly: Percent inhibition against EphB4 at 10 uM by HTRF method. Further details: scale not given: the % may be the effect or the level left.

Test [6] deals with Insulin-like growth factor 1 receptor (Homo sapiens) (UniProt P08069). Nature of the test: […] against IGF1R at 10 uM by HTRF method.
For test [7], the target named is Fibroblast growth factor receptor 1 (Homo sapiens) (UniProt P11362). Put plainly: Percent inhibition against FGFR1 at 10 uM by HTRF method. Set-up: scale not given: the % may be the effect or the level left.
For test [8], the target named is Hepatocyte growth factor receptor (Homo sapiens) (UniProt P08581). Nature of the test: Percent inhibition against c-Met at 10 uM by HTRF method. Further details: scale not given: the % may be the effect or the level left.
The target of test [9] is Epidermal growth factor receptor (Homo sapiens) (UniProt P00533). Nature of the test: […] against ErbB1 at 10 uM by HTRF method.
The target in test [10] is T2, Vascular endothelial growth factor receptor 2 (Homo sapiens, UniProt P35968). Put plainly: Inhibition of VEGFR2 by enzymatic assay.
In test [11] the target is RAC-alpha serine/threonine-protein kinase (Homo sapiens) (UniProt P31749). Put plainly: […] against PKB/Akt at 10 uM by HTRF method.
The target in test [12] is T2, Vascular endothelial growth factor receptor 2. Nature of the test: Inhibition of VEGFR2 in 293 adenovirus transfected kidney cells by cell-based ELISA assay. On the technique in general: In an ELISA, binding on a coated surface is turned into a signal by an enzyme label.
In test [13] the target is Vascular endothelial growth factor receptor 1 (Homo sapiens, UniProt P17948). Put plainly: Inhibition of VEGFR1 by enzymatic assay.
The target in test [14] is Cyclin-dependent kinase 2 (Homo sapiens) (UniProt P24941). Put plainly: […] against Cdk2 at 10 uM by HTRF method.
The target of test [15] is Bcr/Abl fusion protein (Homo sapiens) (UniProt P00519+P11274). Put plainly: Inhibition of bcr-Abl at 10 uM by HTRF method. The format is protein assay. Set-up: scale not given: the % may be the effect or the level left.
Test [16] deals with Receptor-type tyrosine-protein kinase FLT3 (Homo sapiens) (UniProt P36888). Nature of the test: Inhibition of Flt3 at 10 uM by HTRF method. Further details: scale not given: the % may be the effect or the level left.
Sequence of Receptor-type tyrosine-protein kinase FLT3 (Homo sapiens) (P36888 whole entry): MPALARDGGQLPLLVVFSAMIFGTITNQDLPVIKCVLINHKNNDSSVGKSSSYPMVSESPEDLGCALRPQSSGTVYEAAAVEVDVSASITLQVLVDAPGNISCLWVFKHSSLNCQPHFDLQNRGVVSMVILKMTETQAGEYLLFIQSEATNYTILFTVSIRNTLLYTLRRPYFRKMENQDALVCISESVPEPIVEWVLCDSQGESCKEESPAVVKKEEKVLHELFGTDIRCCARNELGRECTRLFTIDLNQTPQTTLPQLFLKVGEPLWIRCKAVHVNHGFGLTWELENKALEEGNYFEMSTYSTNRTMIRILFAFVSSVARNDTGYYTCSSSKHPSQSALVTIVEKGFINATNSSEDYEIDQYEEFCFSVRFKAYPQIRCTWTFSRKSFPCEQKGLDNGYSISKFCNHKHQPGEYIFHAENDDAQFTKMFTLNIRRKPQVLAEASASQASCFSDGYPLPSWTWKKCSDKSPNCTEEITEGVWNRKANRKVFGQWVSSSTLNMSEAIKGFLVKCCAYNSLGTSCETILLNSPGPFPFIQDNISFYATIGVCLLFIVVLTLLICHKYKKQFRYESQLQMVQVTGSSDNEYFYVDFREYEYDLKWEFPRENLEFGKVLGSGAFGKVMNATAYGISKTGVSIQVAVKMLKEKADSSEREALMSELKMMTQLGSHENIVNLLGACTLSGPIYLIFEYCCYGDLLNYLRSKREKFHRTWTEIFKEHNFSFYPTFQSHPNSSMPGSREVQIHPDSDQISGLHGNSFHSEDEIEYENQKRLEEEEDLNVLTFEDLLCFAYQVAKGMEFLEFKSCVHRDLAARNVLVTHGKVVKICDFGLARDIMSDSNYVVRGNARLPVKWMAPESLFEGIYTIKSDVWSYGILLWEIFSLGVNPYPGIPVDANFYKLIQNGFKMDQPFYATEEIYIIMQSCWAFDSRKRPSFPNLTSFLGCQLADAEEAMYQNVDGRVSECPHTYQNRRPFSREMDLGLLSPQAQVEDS

Sequence of Vascular endothelial growth factor receptor 1 (P17948 whole entry): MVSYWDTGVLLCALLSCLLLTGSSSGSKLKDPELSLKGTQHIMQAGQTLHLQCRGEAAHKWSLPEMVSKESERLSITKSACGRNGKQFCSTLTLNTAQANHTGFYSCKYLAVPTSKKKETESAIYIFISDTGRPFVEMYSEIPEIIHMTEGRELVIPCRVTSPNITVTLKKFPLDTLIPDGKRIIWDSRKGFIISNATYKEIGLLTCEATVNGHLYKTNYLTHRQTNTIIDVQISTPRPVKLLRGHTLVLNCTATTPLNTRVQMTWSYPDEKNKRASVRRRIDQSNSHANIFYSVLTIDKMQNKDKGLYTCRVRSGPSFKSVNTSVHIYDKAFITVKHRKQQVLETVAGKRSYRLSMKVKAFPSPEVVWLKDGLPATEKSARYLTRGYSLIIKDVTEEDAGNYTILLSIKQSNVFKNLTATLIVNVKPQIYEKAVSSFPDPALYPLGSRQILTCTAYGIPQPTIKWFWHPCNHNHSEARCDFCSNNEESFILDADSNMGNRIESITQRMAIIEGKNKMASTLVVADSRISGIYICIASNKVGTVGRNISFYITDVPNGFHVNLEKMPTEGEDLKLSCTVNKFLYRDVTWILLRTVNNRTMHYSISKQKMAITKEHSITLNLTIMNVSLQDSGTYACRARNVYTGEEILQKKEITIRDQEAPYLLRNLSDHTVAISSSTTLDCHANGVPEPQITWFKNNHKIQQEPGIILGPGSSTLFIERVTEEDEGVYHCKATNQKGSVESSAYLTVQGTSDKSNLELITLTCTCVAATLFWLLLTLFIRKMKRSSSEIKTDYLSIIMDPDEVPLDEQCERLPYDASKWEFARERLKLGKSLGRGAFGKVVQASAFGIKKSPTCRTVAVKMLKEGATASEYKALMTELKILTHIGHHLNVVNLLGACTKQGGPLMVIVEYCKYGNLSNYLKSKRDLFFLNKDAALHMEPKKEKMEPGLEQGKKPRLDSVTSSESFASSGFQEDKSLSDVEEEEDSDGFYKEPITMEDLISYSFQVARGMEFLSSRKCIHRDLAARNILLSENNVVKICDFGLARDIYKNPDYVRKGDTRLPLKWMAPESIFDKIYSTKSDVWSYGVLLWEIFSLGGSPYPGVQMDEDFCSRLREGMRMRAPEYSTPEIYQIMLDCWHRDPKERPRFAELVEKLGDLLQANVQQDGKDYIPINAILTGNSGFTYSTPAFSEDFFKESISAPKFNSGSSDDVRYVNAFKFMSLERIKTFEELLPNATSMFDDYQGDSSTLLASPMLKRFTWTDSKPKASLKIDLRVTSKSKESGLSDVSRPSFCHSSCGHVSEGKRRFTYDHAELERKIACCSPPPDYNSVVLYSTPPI
Sequence of Hepatocyte growth factor receptor (Homo sapiens) (P08581 whole entry): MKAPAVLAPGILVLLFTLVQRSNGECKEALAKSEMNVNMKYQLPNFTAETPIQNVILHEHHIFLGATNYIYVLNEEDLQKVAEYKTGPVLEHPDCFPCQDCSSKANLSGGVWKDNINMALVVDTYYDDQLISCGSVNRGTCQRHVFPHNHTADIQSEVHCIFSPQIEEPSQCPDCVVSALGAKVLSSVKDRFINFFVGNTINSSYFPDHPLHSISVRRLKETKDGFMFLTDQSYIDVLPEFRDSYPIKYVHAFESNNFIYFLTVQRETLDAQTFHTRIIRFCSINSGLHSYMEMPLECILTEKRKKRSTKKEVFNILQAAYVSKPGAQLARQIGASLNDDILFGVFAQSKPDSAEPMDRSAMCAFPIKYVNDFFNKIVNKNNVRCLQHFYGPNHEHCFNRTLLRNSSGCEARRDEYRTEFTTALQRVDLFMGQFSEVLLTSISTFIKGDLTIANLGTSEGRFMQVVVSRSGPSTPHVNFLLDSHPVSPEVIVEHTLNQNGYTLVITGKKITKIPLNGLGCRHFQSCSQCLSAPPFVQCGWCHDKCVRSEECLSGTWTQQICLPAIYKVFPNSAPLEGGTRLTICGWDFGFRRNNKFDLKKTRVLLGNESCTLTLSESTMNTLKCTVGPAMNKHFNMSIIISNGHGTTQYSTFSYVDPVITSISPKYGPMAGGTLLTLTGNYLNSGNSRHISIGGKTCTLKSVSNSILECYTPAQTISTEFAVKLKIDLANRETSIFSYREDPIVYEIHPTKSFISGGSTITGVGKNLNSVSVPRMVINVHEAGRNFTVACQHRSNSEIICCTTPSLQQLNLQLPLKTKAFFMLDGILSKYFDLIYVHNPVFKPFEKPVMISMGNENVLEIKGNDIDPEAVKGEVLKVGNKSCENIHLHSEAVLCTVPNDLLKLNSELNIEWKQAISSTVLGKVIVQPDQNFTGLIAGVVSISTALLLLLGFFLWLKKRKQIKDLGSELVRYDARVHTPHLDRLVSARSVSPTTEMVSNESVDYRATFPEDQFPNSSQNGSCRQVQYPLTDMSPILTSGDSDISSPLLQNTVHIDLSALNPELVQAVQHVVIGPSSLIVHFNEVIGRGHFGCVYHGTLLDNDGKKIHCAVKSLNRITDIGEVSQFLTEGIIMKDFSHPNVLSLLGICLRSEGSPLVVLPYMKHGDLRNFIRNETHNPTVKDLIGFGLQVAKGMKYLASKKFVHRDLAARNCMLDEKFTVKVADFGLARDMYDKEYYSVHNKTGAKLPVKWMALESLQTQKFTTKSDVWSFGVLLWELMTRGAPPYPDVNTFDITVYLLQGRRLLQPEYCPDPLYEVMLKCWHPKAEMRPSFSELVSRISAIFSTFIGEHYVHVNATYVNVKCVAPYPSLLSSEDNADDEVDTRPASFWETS
Sequence of RAC-alpha serine/threonine-protein kinase (Homo sapiens) (P31749 whole entry): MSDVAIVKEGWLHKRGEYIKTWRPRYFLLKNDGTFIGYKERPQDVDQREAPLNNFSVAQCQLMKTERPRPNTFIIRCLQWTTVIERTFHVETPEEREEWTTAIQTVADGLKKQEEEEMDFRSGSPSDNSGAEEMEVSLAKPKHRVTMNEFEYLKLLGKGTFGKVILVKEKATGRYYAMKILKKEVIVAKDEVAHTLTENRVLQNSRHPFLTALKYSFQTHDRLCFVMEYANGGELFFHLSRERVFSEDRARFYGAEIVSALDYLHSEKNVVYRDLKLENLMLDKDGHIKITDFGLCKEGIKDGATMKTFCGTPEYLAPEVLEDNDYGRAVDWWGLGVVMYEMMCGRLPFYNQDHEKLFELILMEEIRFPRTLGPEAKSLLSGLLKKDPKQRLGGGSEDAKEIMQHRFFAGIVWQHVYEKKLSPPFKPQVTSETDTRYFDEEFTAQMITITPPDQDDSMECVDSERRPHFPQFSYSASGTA
Sequence of Fibroblast growth factor receptor 1 (Homo sapiens) (P11362 22-822 limits assumed): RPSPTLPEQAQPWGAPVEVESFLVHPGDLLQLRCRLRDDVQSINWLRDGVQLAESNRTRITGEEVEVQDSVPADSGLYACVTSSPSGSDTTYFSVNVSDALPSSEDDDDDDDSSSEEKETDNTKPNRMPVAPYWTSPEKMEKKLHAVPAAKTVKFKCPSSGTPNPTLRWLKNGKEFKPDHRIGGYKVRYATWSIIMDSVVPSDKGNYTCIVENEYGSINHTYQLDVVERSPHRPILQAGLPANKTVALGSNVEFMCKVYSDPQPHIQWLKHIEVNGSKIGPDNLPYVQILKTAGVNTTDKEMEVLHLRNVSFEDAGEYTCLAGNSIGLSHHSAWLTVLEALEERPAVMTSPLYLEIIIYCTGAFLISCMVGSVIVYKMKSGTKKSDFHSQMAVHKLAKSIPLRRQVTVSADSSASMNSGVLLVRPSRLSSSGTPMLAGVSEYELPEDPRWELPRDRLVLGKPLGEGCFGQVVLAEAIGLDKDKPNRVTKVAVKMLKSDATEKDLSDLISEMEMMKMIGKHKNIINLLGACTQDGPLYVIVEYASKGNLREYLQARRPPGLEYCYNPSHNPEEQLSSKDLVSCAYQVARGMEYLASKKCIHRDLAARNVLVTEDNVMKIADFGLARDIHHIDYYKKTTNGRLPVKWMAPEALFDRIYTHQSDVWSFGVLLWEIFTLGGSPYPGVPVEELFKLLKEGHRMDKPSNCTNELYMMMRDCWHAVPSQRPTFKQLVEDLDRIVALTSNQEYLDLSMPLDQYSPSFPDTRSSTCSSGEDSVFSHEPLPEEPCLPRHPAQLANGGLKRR

As usually defined, the IC50 is the concentration at which inhibition is half-maximal. As for `Cn1cnc(NCc2ccncc2)c1-c1nnc(Nc2cccc(OC(F)(F)F)c2)o1`, the Activity in test [1], in test [2], in test [3], in test [4], in test [5] and in [6] was under 30% in each case. Also, the Activity in test [7], in [8], in test [11], in test [15] and in test [16] was under 30% throughout. Further, the Percent inhibition in test [9] and in test [14] was under 30% in each case. In addition, the IC50 in test [10] was 46 nM; in test [12], 130 nM; in test [13], 560 nM.

Turning to `Cn1cnc(NCc2ccc3[nH]ncc3c2)c1-c1nnc(Nc2ccc(Cl)cc2)o1`, the Activity in [1], in test [2], in test [3], in test [4], in [5] and in [6] was under 30% throughout. Further, the Activity in test [7], in test [8], in test [11], in test [15] and in [16] was under 30% in each case. The Percent inhibition in test [9] and in [14] was under 30% in each case. Moreover, the IC50 is 2370 nM in test [10], over 10000 nM in test [12] and over 10000 nM in test [13].

Take `COc1ccccc1Nc1nnc(-c2c(NCc3ccncc3)ncn2C)o1`: the Activity in test [1], in test [2], in test [3], in [4], in test [5] and in test [6] was under 30% in each case. Besides, the Activity in [7], in test [8], in [11], in [15] and in [16] was under 30% each time. For the same compound, the Percent inhibition in test [9] and in test [14] was under 30% in each case.

As to `Cn1cnc(NCc2ccc(F)c(F)c2)c1-c1nnc(Nc2ccc(Cl)cc2)o1`, the Activity in [1], in test [2], in test [3], in test [4], in [5] and in test [6] was under 30% each time. Further, the Activity in test [7], in test [8], in test [11], in test [15] and in test [16] was under 30% each time. Further, the Percent inhibition in test [9] and in [14] was under 30% throughout. Besides, the IC50 in test [10] was 1860 nM; in test [12] it was 5650 nM; in test [13], 3310 nM.

In the case of `Cn1cnc(NCc2ccncc2)c1-c1nnc(Nc2ccc(C(C)(C)C)cc2)o1`, the Activity in test [1], in [2], in test [3], in test [4], in test [5] and in test [6] was under 30% throughout. Also, the Activity in test [7], in test [8], in test [11], in test [15] and in [16] was under 30% in each case. Also, the Percent inhibition in test [9] and in [14] was under 30% throughout. Besides, the IC50 in test [10] amounted to 380 nM; in test [12], 1050 nM; in test [13], 890 nM.

Turning to `Cn1cnc(NCc2ccncc2)c1-c1nnc(Nc2ccc(Br)cc2)o1`, the Activity in test [1], in test [2], in [3], in test [4], in test [5] and in test [6] was under 30% each time. Moreover, the Activity in test [7], in test [8], in test [11], in test [15] and in test [16] was under 30% in each case. Besides, the Percent inhibition in [9] and in test [14] was under 30% each time. The results for the IC50 in test [10] and in test [13] were 730 nM and 1470 nM, respectively.

Consider `Cc1cccc(Nc2nnc(-c3c(NCc4ccncc4)ncn3C)o2)c1`, for which the Activity in test [1], in test [2], in test [3], in [4], in test [5] and in [6] was under 30% each time. The Activity in test [7], in [8], in test [11], in [15] and in test [16] was under 30% in each case. The Percent inhibition in [9] and in test [14] was under 30% in each case. Besides, the results for the IC50 in [10] and in test [13] were 710 nM and 1260 nM, respectively.

Regarding `Cn1cnc(NCc2ccncc2)c1-c1nnc(Nc2ccc(Cc3ccccc3)cc2)o1`, the Activity in test [1], in [2], in test [3], in [4], in test [5] and in test [6] was under 30% in each case. Moreover, the Activity in test [7], in test [8], in test [11], in [15] and in test [16] was under 30% throughout. For the same compound, the Percent inhibition in test [9] and in test [14] was under 30% in each case. Also, the IC50 in test [10] and in [13] was over 10000 nM each time.

Take `Cc1ccccc1Nc1nnc(-c2c(NCc3ccncc3)ncn2C)o1`: the Activity in [1], in test [2], in test [3], in [4], in [5] and in [6] was under 30% throughout. The Activity in [7], in test [8], in test [11], in test [15] and in test [16] was under 30% in each case. Besides, the Percent inhibition in test [9] and in [14] was under 30% in each case. For the same compound, the IC50 in test [10] and in [13] was over 10000 nM throughout.

With `Cn1cnc(NCc2ccncc2)c1-c1nnc(Nc2ccc(Oc3ccccc3)cc2)o1`, the Activity in test [1], in test [2], in [3], in test [4], in [5] and in test [6] was under 30% throughout. In addition, the Activity in test [7], in test [8], in [11], in test [15] and in test [16] was under 30% each time. In addition, the Percent inhibition in test [9] and in test [14] was under 30% each time. Also, the IC50 in [10] and in test [13] was over 10000 nM each time.

`Cn1cnc(NCc2ccncc2)c1-c1nnc(Nc2ccc(-c3ccccc3)cc2)o1`: the Activity in [1], in test [2], in test [3], in test [4], in [5] and in test [6] was under 30% each time. Also, the Activity in test [7], in [8], in [11], in [15] and in test [16] was under 30% in each case. Besides, the Percent inhibition in test [9] and in [14] was under 30% throughout. Further, the figures for the 50% inhibitory concentration (IC50) in [10] and in [13] were 3220 nM and over 10000 nM, respectively.

These data come from ChEMBL document CHEMBL1139649, “Hetaryl imidazoles: a novel dual inhibitors of VEGF receptors I and II” (Bioorg Med Chem Lett, 2006).
